From patent US20240230620A1, “CURRENT AND […]” (National Taiwan University, priority 2023, published 2024)
Like-named read-outs stand apart in the source and are kept apart here.

Columns and labels:
[1] = test system: Gα subunit; settings: fluorescence
Experimental: The intrinsic tryptophan in the switch-II region serves as a fluorescent probe for examining the activity of Ga subunit. In the AlF4^− dependent activation assay, the AlF4^− bound to GDP mimics the transition state of GTP hydrolysis, stimulating the conformational change of the switch-II region and enhancing the fluorescence quantum yields of intrinsic Trp. This principle was also applied to GDP/GTP auto-exchange, but it was conducted using of GTPγS, a non-hydrolyzable GTP analog. In the time-course of Trp fluorescence measurement, the excitation and emission wavelengths were 280 and 340 nm, respectively, and both slits are 10 nm. For AlF4^− dependent activation assay, 20 μL 20 μM Ga protein was first added into a cuvette filled with 1.5 mL buffer G without BME and PMSF at 50 s. Then 40 μL 500 mM NaF and 20 μL 10 mM AlCl3 were added simultaneously at 100 s. For GDP/GTP auto-exchange, the experiments were conducted as described above using 1 μM GTPγS instead of AlF4^−.
The effectiveness of Gα inactivation using EDTA was analyzed by fluorescence (FIG. 23(A)).

[2] = biological target: T1, AtGPA1 (Arabidopsis thaliana, UniProt P18064); experiment: GTPγS saturation binding analysis of AtGPA1 (photocurrent and fluorescence); settings: percent of maximum fitted to a hyperbola, preliminary test
T1 sequence (P18064 1-383): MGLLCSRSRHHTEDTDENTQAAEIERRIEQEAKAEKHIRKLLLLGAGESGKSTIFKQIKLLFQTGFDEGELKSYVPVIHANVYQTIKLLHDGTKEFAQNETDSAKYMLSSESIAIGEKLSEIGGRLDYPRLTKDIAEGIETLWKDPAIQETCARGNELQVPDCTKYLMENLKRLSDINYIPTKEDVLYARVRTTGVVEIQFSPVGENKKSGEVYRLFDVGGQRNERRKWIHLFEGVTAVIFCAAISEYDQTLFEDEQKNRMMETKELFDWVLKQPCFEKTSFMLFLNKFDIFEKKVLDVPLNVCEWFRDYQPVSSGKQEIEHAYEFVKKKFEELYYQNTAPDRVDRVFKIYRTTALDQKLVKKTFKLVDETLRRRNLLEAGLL
Experimental: The photo-induced-voltage-generating solution chamber was filled with 20 mg/mL HEBR solution in the dual chamber format. The sample to be tested was added to the sample chamber at a volume of 100-150 μL. The photo-induced-voltage-generating solution chamber was illuminated by a 10-Hz, 532-nm flash laser (Nd-YAG laser, 6 ns pulse, pump energy 21 J) via a central control unit (Raspberry Pi 400) to generate the alternating photocurrent. The data recording system was identical to steady-state photocurrent measurement. Each data was collected at a single trigger event. The laser was triggered at 0 s and stopped at 40 s with each 5 s pre-trigger and post-illumination. Then, the raw data were recorded in a .csv file and processed by the Python code. The processed data were exported to an excel file for further analysis.
After the successful measurement of the interaction of Gα with its ligand, the present device was extended to measure the KD of Gα and its ligands. In preliminary test, the plant Arabidopsis thaliana Gα AtGPA1 and a non-hydrolyzable GTP analog GTPγS were adopted. […] The AtGPA1 was purified and analyzed the activity using the identical method in mammalian Gα purification.
Referring to FIG. 24, to calculate the KD of AtGPA1 and GTPγS, both photocurrent and fluorescence were measured. […]

[3] = biological target: T1, AtGPA1; settings: derived from radioactive GTPγS assay; read-out: KD of AtGPA1 and GTPγS, previous study; cited from earlier work

O=C(O)CN(CCN(CC(=O)O)CC(=O)O)CC(=O)O [EDTA]
Gα subunit inactivation ([1]; 20 μM Gα subunit at 100 mM EDTA): almost inactivated | reduction of Gα subunit activity ([1]; 20 μM Gα subunit in 10 mM EDTA): more than 60%

Nc1nc2c(ncn2[C@@H]2O[C@H](COP(=O)(O)OP(=O)(O)OP(O)(O)=S)[C@@H](O)[C@H]2O)c(=O)[nH]1 [GTPγS]
Kd [2]: ~1.5 nM | Kd [3]: 0.8 nM
